How the values were obtained:
Assay in all cases: Cell viability of GBM cells exposed to WNT974
[1] = tested on: SNB19 cells (WNT6-positive GBM); format: cell-based, human
Experimental: (§1) FIG. 13. WNT6-positive GBM cell lines are more sensitive to WNT974 (an inhibitor of the WNT pathway) than a WNT6-negative GBM cell line. A. GBM cells positive to WNT6 (U373, […], and GL42) and negative to WNT6 (U87) were exposed to increasing doses of WNT974 (0, 10, 20, or 30 μM). The viability of U87 cells (WNT6-negative) was not affected by WNT inhibition, in contrast to WNT6-positive GBM cells (U373, SNB19, and GL42) that are highly-sensitive. B. Cells were exposed to increasing doses of WNT974 (0, 10, 20, or 30 μM) and to a fixed dose of TMZ (temozolomide, the gold standard chemotherapeutic drug used for GBM patients; U373: 400 μM; SNB19: 800 μM; GL42: 200 μM; U87: 800 μM).

[2] = tested on: U373 cells (WNT6-positive GBM); format: cell-based, human
Experimental: as §1

[3] = tested on: U87 cells (WNT6-negative GBM); format: cell-based, human
Experimental: as §1

[4] = tested on: GL42 cells (WNT6-positive GBM); format: cell-based
Experimental: as §1

Cc1cc(-c2ncc(CC(=O)Nc3ccc(-c4cnccn4)cn3)cc2C)ccn1 [WNT974]
cell viability, sensitivity to WNT inhibition ([1]; SNB19 (WNT6-positive), WNT974 0, 10, 20, or 30 μM): highly-sensitive
cell viability, sensitivity to combinatorial therapy ([1]; SNB19, WNT974 0, 10, 20, or 30 μM plus fixed dose TMZ 800 μM): higher sensitivity
cell viability, sensitivity to WNT inhibition ([2]; U373 (WNT6-positive), WNT974 0, 10, 20, or 30 μM): highly-sensitive
cell viability, sensitivity to combinatorial therapy ([2]; U373, WNT974 0, 10, 20, or 30 μM plus fixed dose TMZ 400 μM): higher sensitivity
cell viability, sensitivity to WNT inhibition ([3]; U87 (WNT6-negative), WNT974 0, 10, 20, or 30 μM): not affected
cell viability, sensitivity to combinatorial therapy ([3]; U87, WNT974 0, 10, 20, or 30 μM plus fixed dose TMZ 800 μM): no effect
cell viability, sensitivity to WNT inhibition ([4]; GL42 (WNT6-positive), WNT974 0, 10, 20, or 30 μM): highly-sensitive
cell viability, sensitivity to combinatorial therapy ([4]; GL42, WNT974 0, 10, 20, or 30 μM plus fixed dose TMZ 200 μM): higher sensitivity
